pIC50: −log10 of the molar value.

In data set [1] the target is T1, FAAH (Homo sapiens, UniProt O00519).
T1 construct: 25 μL of human liver microsomes (31.3 μg); from tissue; host or cells: human liver microsomes
T1 sequence (O00519 1-579): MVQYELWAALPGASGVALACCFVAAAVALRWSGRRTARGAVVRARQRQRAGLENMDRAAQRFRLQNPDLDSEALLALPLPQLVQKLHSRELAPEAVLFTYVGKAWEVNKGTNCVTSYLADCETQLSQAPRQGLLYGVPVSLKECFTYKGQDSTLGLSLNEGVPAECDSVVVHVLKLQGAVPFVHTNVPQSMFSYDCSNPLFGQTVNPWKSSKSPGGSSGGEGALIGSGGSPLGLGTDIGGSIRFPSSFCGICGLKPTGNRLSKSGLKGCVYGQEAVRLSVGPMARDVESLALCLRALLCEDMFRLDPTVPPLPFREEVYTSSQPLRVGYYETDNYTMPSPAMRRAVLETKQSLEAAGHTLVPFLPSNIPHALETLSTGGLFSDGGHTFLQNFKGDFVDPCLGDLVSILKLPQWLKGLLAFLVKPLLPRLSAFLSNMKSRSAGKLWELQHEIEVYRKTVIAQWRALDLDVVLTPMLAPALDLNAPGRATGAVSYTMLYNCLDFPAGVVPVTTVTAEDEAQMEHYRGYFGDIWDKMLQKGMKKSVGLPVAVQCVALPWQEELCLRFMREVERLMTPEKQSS
Nature of the data set: FAAH LC-MS/MS screening assay (anandamide hydrolysis by human liver microsomes). The settings on record: for anandamide hydrolysis allowed (percent hydrolysis normalized to control): inhibitor at 30 nM, 60 minute incubation at 37° C. The data set is classed as biochemical. As for the experimental part:
For determining IC50 values for candidate FAAH inhibitor compounds, the above method is used with an adjusted FAAH inhibitor concentration. In the IC50 assay, the FAAH inhibitor is added at a concentration range of approximately 3 μM to 0.03 nM. The final calculation of IC50 is determined by first transforming the concentrations by “X=log(X)” and then analyzing the data with a sigmoidal dose-response curve (no constraints) using GraphPad Prism version 4.00 for Windows (GraphPad Software, San Diego Calif. USA, www.graphpad.com).

Data set [2] can be described thus: Pharmacokinetics in rats following oral administration as a suspension; blood concentrations of compound, acetaminophen and fatty acid ethanolamides. It counts as in vivo. To be noted: 10 mg/kg oral gavage. How it is done:
Potential FAAH inhibitors are formulated for oral (p.o.), intraperitoneal (i.p.) or intravenous (i.v.) delivery to rats. Formulated compounds are administered and the animals were sacrificed at pre-determined time points post dose. At sacrifice, blood samples are collected into EDTA plasma tubes and whole brains were snap frozen in liquid nitrogen. EDTA plasma was isolated from blood samples after centrifugation. Brain and plasma samples are stored at −80° C. prior to analysis. All samples (brain and plasma) are analyzed for the concentrations of test compound (FAAH inhibitor), metabolites of the test compound (such as, for example, acetaminophen, propofol, NSAID, or NSAID metabolite) and endogenous fatty acid ethanolamide levels (including anandamide, oleoylethanolamide, and palmitoylethanolamide) by LC-MS/MS according to the invention. Levels of these compounds are compared across time points to determine pharmacokinetic properties of the test compound and partial pharmacological effects of inhibiting FAAH activity (including changes of fatty acid ethanolamide levels).
The pharmacokinetic properties of 4-acetamidophenyl cyclohexylnethylcarbamate were assessed in rats following oral administration as a suspension. […] The suspension of 4-acetamidophenyl cyclohexylmethylcarbamate was administered to rats at a dose of 10 mg/kg of 4-acetamidophenyl cyclohexylmethylcarbamate via oral gavage. Blood samples were extracted from the rats. Samples were analyzed for concentrations of OEA, PEA, AEA, 4-acetamidophenyl cyclohexylmethylcarbamate and acetaminophen (in-vivo metabolite). Baseline levels of OEA and PEA were 4.18 and 4.17 ng/mL, respectively.

Data set [3] deals with CFA-induced mechanical hyperalgesia in rats. The data set is described as follows: Complete Freund's Adjuvant (CFA)-induced mechanical hyperalgesia (paw withdrawal threshold). It counts as in vivo, male Wistar rats. The settings on record: 60 mg/kg, p.o.; 24 h after intraplantar CFA; reading 2 h post drug administration. As for the experimental part: In this rat model of inflammatory pain, inflammation is induced by intraplantar injection of complete Freund's adjuvant (CFA) into the hind paw. The associated mechanical hyperalgesia is quantified by measuring the reduction in paw withdrawal threshold (PWT) to a mechanical compression of the paw.
Experiments were conducted using male Wistar rats weighing 130-180 g. In brief, the rats' paw withdrawal threshold (PWT) to a mechanical compression of the hind paw was measured (baseline reading) using a Randall-Sellito apparatus (Ugo Basile). A cut-off of 200 g was employed to minimise tissue damage to the paw. The animals were then briefly anaesthetised with isoflurane (˜2%) and complete Freund's adjuvant (0.1 ml per paw) was injected subcutaneously (s.c.) into the plantar surface of the left hind paw. The animals were then returned to their home cage and left for the inflammation to develop.
Twenty four hours after CFA injection, PWT's were re-measured (0 min); only those animals developing hyperalgesia (>20 g decrease in PWT compared to their baseline readings) were included for drug assessment. Rats were then dosed orally with either vehicle or test compound. Readings were then made at 2 h post drug administration.

Take `CC(=O)Nc1ccc(OC(=O)NC2CCCCC2)cc1` [4-acetamidophenyl cyclohexylcarbamate]: the “anandamide hydrolysis allowed (percent hydrolysis normalized to control)” value in data set [1] was 56%.
In the case of `CC(=O)Nc1ccc(OC(=O)NCC2CCCCC2)cc1` [4-acetamidophenyl cyclohexylmethylcarbamate], in data set [1], the “anandamide hydrolysis allowed (percent hydrolysis normalized to control)” value amounted to 37%. Also, the pIC50 (as a rule, −log10 of the IC50, conventionally taken in molar units) in data set [1] (inhibitor range approximately 3 μM to 0.03 nM) is 7.84. In data set [2], the “AUC of AEA” value was 0 ng·h/mL, the “Tmax of AEA” value came out at 0 h, the “Tmax of OEA” value worked out at 90 min and the “Tmax of PEA” value is 60 min. For the same compound, in data set [2] (baseline OEA 4.18 ng/mL), the “AUC of OEA” value amounted to 40 ng·h/mL and the “Cmax of OEA” value was determined as 7.55 ng/mL. Besides, in data set [2] (baseline PEA 4.17 ng/mL), the “AUC of PEA” value turned out to be 43 ng·h/mL and the “Cmax of PEA” value is 8.85 ng/mL. In data set [2] (rat, plasma, suspension), the AUC (commonly concentration integrated over time) was determined as 6780 ng·h/mL, the Cmax (commonly the maximum level reached in the sampled fluid or tissue) was 7740 ng/mL and the Tmax (usually the time from dosing to the highest level) is 30 min. The “reversal of mechanical hyperalgesia” value in data set [3] is “complete reversal”.
`NC(=O)c1cccc(-c2cccc(OC(=O)NC3CCCCC3)c2)c1` [reference compound]: the “anandamide hydrolysis allowed (percent hydrolysis normalized to control)” value in data set [1] was found to be 30%.

The record behind these values is patent US20080045513A1, “C[…] INHIBITOR AND […], ANTI-INFLAMMATORY OR ANTI-PYRETIC AGENT” (N.V. Organon, priority 2006, published 2008).
